The data set in a line: Electric potential experiment (degree of carbonation, carbon dioxide electrode) as surrogate of bitterness perception. The note with it: Sol. Nos. 26-28, acetaminophen as the API, 100 mL deionized water. Type of data set: physicochemical. On the procedure:
Formulations comprising the effervescent combination (sodium bicarbonate and citric acid) and molecules/compositions that impart a bitter taste (such as APIs or compositions comprising APIs) can be prepared according to Tables 1-5 below. Exemplary formulations according to the disclosure were made according to the following general procedure. 100 mL of deionized water from MILLI-Q® Q-POD® water purifier (having about 1.9 ppb total organic content) was weighed out in an appropriately sized glass beaker. The ingredients mentioned in Tables 1-5 below were weighed out and added to the glass beaker containing deionized water, and then the mixture was stirred for 15 minutes until the blend is homogenous. Each ingredient was sieved through a mesh 18 strainer ([…] strainer size means particles won't be greater than 0.0394 inches (1000 microns or 1 mm) in diameter) to remove clumps before weighing. The METTLER TOLEDO® XP6035S was used to measure ingredient weight, but any suitable weighing balance may be used.
Various combinations of bitter tasting molecules/compositions (e.g., APIs or compositions comprising APIs) along with the effervescent combination were prepared as solutions (see Sol. Nos. 1-36 in FIG. 1) per the general procedure described in Example 1. For the electric potential experiment, after the solutions were stirred, a carbon dioxide electrode (which measures the degree of carbonation) was dipped in the glass beaker to assess degree of carbonation (unit is electric potential in mV). The THERMO SCIENTIFIC™ ORION™ VSTAR PRO™ 9502BNWP carbon dioxide electrode was used to measure electrical potential (mV). The METTLER TOLEDO SEVENCOMPACT™ PH meter PD-470 was used to measure the pH. […] The carbon dioxide electrode was rinsed with deionized water and cleaned with a lint free tissue in between samples.

Each structure is given as a SMILES string.

`CC(=O)Nc1ccc(O)cc1` [acetaminophen]: the average electric potential runs as follows: (including 0.300 g of the effervescent combination (low end)) 22.24 mV; (including 0.400 g of the effervescent combination) 30.4 mV; (including 0.500 g (high end) of the effervescent combination) 35.67 mV.

The record behind these values is patent US20250281391A1, “EFFERVESCENT COMPOSITION AND METHOD FOR DETERMINING BITTERNESS PERCEPTION” (BAYER HEALTHCARE LLC, priority 2024, published 2025).
